Drawing on patent US7528138B2, “Pyrazolo[1,5-a]pyrimidines useful as inhibitors of protein kinases” (Vertex Pharmaceuticals Incorporated, priority 2004, dated 2009), this text covers Ki for seven compounds.

Where only a bound is given, the exact number is not on record here.

In assay [1] the target is T1, Aurora-2 (Homo sapiens, UniProt O14965).
T1 sequence (O14965 1-403): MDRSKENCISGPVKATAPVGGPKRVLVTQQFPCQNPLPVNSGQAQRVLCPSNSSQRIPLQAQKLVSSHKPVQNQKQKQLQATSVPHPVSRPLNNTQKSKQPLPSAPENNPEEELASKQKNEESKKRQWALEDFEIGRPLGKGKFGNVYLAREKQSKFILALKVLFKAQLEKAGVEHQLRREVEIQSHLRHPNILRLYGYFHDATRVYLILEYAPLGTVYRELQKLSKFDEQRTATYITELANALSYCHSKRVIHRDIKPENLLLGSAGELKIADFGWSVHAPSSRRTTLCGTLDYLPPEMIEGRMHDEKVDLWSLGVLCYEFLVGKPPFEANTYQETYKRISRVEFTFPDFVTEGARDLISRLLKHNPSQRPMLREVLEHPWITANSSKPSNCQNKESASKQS
The assay is described as follows: Aurora-A (Aurora-2) Inhibition Assay, coupled enzyme assay. Format: biochemical. The following applies: enzyme inhibition data (Ki), Table 11; read-out: AurA Ki. An outline of the steps:
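Coupled pyruvate kinase/lactate dehydrogenase assay following NADH, pH 7.5 Hepes, 40 nM Aurora-2, 400 μM ATP and 570 μM Kemptide at 30 °C. Compound (top final typically 7.5 μM) preincubated 10 min; initial rates over 10 min; IC50 and Ki by non-linear regression.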

Assay [2] concerns the target T2, Itk (Homo sapiens, UniProt Q08881).
T2 sequence (Q08881 1-620): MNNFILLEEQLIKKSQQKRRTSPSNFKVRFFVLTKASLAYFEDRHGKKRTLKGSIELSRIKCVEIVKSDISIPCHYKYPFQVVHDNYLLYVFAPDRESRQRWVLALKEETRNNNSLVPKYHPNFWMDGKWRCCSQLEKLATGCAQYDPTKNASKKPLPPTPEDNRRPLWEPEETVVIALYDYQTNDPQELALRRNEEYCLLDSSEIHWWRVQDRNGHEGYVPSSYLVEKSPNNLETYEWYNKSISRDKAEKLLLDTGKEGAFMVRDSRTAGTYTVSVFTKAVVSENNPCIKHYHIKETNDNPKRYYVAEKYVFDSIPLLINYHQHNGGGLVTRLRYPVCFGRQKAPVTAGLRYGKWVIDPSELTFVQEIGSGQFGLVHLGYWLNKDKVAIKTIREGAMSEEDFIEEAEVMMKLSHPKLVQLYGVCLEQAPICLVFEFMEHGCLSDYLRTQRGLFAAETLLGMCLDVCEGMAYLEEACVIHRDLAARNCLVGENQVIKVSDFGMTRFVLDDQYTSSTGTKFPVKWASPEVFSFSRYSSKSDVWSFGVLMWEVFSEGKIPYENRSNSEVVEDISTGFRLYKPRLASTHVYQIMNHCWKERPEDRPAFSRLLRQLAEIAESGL
Briefly: ITK Inhibition Assay (Radiometric), radioactive-phosphate incorporation. Format: biochemical. The following applies: enzyme inhibition data (Ki), Table 11; radiometric or UV assay not stated. In a few lines:
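Radiometric 33P incorporation into SAM68 peptide (D332-443) with filter capture and scintillation counting; 10 min pre-incubation then 10 min reaction at 25° C. IC50 format: 30 nM Itk, 15 μM ATP, 2 μM peptide, HEPES pH 7.5. Ki(app) format: 50 nM Itk, 7.5 μM ATP, 3 μM peptide, MOPS pH 7.0.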

For the compound `CCN1CCN(C(=O)c2ccc(-c3cnc4c(-c5ccccn5)c(N)nn4c3)nc2)CC1` [Compound V-63], the inhibition constant (Ki) in assay [1] and in assay [2] was less than 500 nM each time.

On to `Cc1cnc2c(-c3cc(NC4CCCCC4)ncn3)c(N)nn2c1` [Compound V-291], for which the Ki in assay [1] and in assay [2] was 500 to 5000 nM throughout.

`CCN1CCN(C(=O)c2ccc(-c3cnc4c(-c5ccccn5)c(N)nn4c3)nc2)C(O)C1` (centres unmarked) [Compound V-78]: the Ki in assay [1] and in assay [2] was less than 500 nM throughout.

As for `Cc1cnc2c(-c3cc(NC4CCC4)ncn3)c(N)nn2c1` [Compound V-290], the Ki in assay [1] and in assay [2] was 500 to 5000 nM each time.

On to `Cc1cnc2c(-c3cc(Nc4ccccc4)ncn3)c(N)nn2c1` [Compound V-279], for which the Ki in assay [1] and in assay [2] was less than 500 nM throughout.

As for `C#CCN(C)C(=O)c1ccc(-c2cnc3c(-c4ccccn4)c(N)nn3c2)nc1` [Compound V-72], the Ki in assay [1] and in assay [2] was less than 500 nM in each case.

With `Nc1nn2cc(-c3ccc(C(=O)N4CCC[C@@H](O)C4)cn3)cnc2c1-c1ccccn1` [Compound V-79], the Ki in assay [1] and in assay [2] was less than 500 nM each time.

Usually Ki stands for the equilibrium dissociation constant of an inhibitor or competing ligand from its target.
